According to patent publication US11590233B2, “Porphyrin compounds and compositions useful for treating cancer” (OncoSelect Therapeutics, LLC, priority 2016, dated 2023):

Tests used:
HCC15 = assay: TCPP uptake in cancer cells vs non-cancer cells by flow cytometry; format: cell-based, human; conditions: 10 ug/ml, HCC15 vs bone marrow cells
Text: (§1) Porphyrin tetrakis(4-carboxyphenyl)porphyrin (TCPP) uptake by a panel of human lung cancer cell lines including, HCC15, H157, and H358 were examined using flow cytometry in under varying conditions to manipulate clathrin-dependent and independent endocytosis by chemical inhibitors. Referring now to FIG. 1, TCPP uptake in cancer cells (HCC15) as compared to bone marrow cells in a dose dependent manner is illustrated. Similar results are observed with mouse normal lung cells as is shown for bone marrow cells. The uptake of TCPP by HCC15 is greater than 2-fold at 10 ug/ml as compared to the non-cancer cells. […] Chlorpromazine, an antagonist of clathrin-mediated endocytosis, inhibited TCPP uptake in a cancer cell line by up to 80% as is illustrated in FIG. 3. In contrast, the clathrin-independent endocytosis inhibitor filipin had no effect on TCPP uptake. It has been speculated that preferential porphyrin uptake by cancer cells as compared to non-cancer cells is facilitated by the increased number of LDL receptor (LDLR) on the surface of cancer cells. To examine LDLR contribution on TCPP uptake, lung cancer cells were manipulated to express no LDLR, which reduced TCPP uptake by only 20%.

HCC15, H157 and H358 = assay: TCPP uptake in cancer cell lines under sucrose or cold temperature (FIG. 2); format: cell-based, human
Text: (§2) Porphyrin tetrakis(4-carboxyphenyl)porphyrin (TCPP) uptake by a panel of human lung cancer cell lines including, HCC15, H157, and H358 were examined using flow cytometry in under varying conditions to manipulate clathrin-dependent and independent endocytosis by chemical inhibitors. […] It has been speculated that preferential porphyrin uptake by cancer cells as compared to non-cancer cells is facilitated by the increased number of LDL receptor (LDLR) on the surface of cancer cells.

lung cancer cells = assay: TCPP uptake in lung cancer cells manipulated to express no LDLR; format: cell-based, human; conditions: lung cancer cells expressing no LDLR
Text: as §1

[1] = tested on: human fibroblasts without functional LDLR; assay: TCPP uptake in human fibroblasts without functional LDLR; format: cell-based
a cancer cell line = assay: TCPP uptake by a cancer cell treated with different inhibitors of endocytosis (FIG. 3); format: cell-based, human
Text: as §2

## O=C(O)c1ccc(-c2c3nc(c(-c4ccc(C(=O)O)cc4)c4ccc([nH]4)c(-c4ccc(C(=O)O)cc4)c4nc(c(-c5ccc(C(=O)O)cc5)c5ccc2[nH]5)C=C4)C=C3)cc1 [TCPP, tetrakis(4-carboxyphenyl)porphyrin]
HCC15
  uptake of TCPP by HCC15 as compared to the non-cancer cells: greater than 2 fold
HCC15, H157 and H358; cold temperature
  inhibition of TCPP uptake by cold temperature: nearly completely inhibited
Lung cancer cells
  reduction of TCPP uptake: 20%
[1]
  inhibition of TCPP uptake: no inhibition

## CCCCC[C@@H](O)[C@H]1C(=O)O[C@H](C)[C@@H](O)/C=C/C=C/C=C/C=C/C=C(\C)[C@@H](O)C[C@H](O)C[C@H](O)C[C@H](O)C[C@H](O)C[C@H](O)C[C@@H]1O [filipin]
A cancer cell line; clathrin-independent endocytosis inhibitor
  effect on TCPP uptake: no effect

## CN(C)CCCN1c2ccccc2Sc2ccc(Cl)cc21 [Chlorpromazine]
A cancer cell line; antagonist of clathrin-mediated endocytosis, a cancer cell line
  inhibition of TCPP uptake: up to 80%

## OC[C@H]1O[C@@](CO)(O[C@H]2O[C@H](CO)[C@@H](O)[C@H](O)[C@H]2O)[C@@H](O)[C@@H]1O [sucrose]
HCC15, H157 and H358; flow cytometry
  inhibition of TCPP uptake by sucrose: moderately inhibited
